The values that follow come from publication PMC6058516, “Bispecific antibodies (anti-mPEG/anti-HER2) for active tumor targeting of docetaxel (DTX)-loaded mPEGylated nanocarriers to enhance the chemotherapeutic efficacy of HER2-overexpressing tumors” (Drug Delivery, 2018).

Usually IC50 stands for the midpoint of a concentration-inhibition curve.

For one experiment, the system named is MCF-7. As to the kind of experiment: Cell viability MTT assay. It counts as cell-based. As to conditions: Homo sapiens, MCF7. The protocol:
(§1) Cell viabilities of the three BC cell lines of MCF-7, MCF-7/HER2, and SKBR-3 treated with Tynen®, the LsbMDDs, DNS-LsbMDDs, and HER2-LsbMDDs were evaluated by an MTT assay. Cells were seeded at a density of 5 × 10^4 cells per well in 24-well plates and incubated for 24 h at 37 °C with 5% CO2. Then, they were treated with different concentrations of the formulations for 4 h under the same conditions. After incubation for 48 h, 50 μL of MTT (6 mg/mL) was added to each well for 3 h. The medium was removed and 200 μL of DMSO was added to each well and gently shaken to dissolve any purple formazan crystal formations. The absorbance of each well was measured at 550 nm (BioTek, Winooski, VT).
On the technique in general: Tetrazolium assays rely on reduction of a dye to a coloured formazan, in cell work by metabolically active cells.

The next experiment relates to MCF-7/HER2. As to the kind of experiment: Cell viability MTT assay. Format: cell-based. The settings on record: Homo sapiens, MCF7. As for the experimental part:
as §1

≈ marks a conversion by molar mass, not a printed value.

Consider `CC(=O)O[C@@]12CO[C@@H]1C[C@H](O)[C@@]1(C)C(=O)[C@H](O)C3=C(C)[C@@H](OC(=O)[C@H](O)[C@@H](NC(=O)OC(C)(C)C)c4ccccc4)C[C@@](O)([C@@H](OC(=O)c4ccccc4)[C@H]21)C3(C)C` [DTX, docetaxel], for which the IC50 in the experiment on MCF-7 was 0.763 µg/mL (≈ 0.944 µM); with MCF-7/HER2, 0.052 µg/mL (≈ 0.0644 µM).
